# Experimental data from US9936705B2, “Biocide formulation for protecting the skin, comprising pentahydrate copper salts and heptahydrate zinc salts” (priority 2014, dated 2018).
# “And” between values parts separate entries of the source, which are not always exact repeats. Equal entries are not always repeated.
# Columns and labels:
# Test in all cases: Sensitivity to antimicrobial agents, Kirby-Bauer disk methodology
# Assay type in all cases: cell-based
# [1] = tested on: E. coli; conditions: Central Region, clinical bovine mastitis isolates
# Experimental: (§1) The following antimicrobial agents were assessed (Oxoid Ltd. Hampshire, England): • Amoxicillin/clavulanic acid (AMC), • Trimethropin/sulfamethoxazole (SXT), • Cefotaxime (CTX), • Gentamicin (GN) and • Neomycin (NE).
# (§2) The bacterial specimens were analyzed according to the Kirby-Bauer disk methodology following the recommendations provided by the guidelines of the Clinical Laboratory Standards Institute (CLSI 2012b) and the BSAC standard (Andrews and Trial 2008).
# (§3) The microorganisms were incubated in Mueller Hinton agar plates at 35° C. for 18-24 hours in aerobics atmosphere. As quality control E. coli (ATCC 25922) and Staphylococcus aureus (25923) were used. The CLSI cut-off points were used to interpret the susceptibility of all microbial agents. For the determination of the cut-off point value for neomycin (NE), the BSAC standard was applied.
# [2] = tested on: S. uberis; conditions: Southern Region, clinical bovine mastitis isolates
# Experimental: as §1, §2, §3
# [3] = tested on: CNS; conditions: clinical bovine mastitis isolates
# Experimental: as §1, §2, §3
# [4] = tested on: S. aureus; conditions: Southern Region, clinical bovine mastitis isolates
# Experimental: as §1, §2, §3
Compound,Resistant (%) [1],Resistant N° [1],Resistant (%) [2],Resistant N° [2],Resistant (%) ([2]; listed as CTK),Resistant (%) ([3]; Central Region),Resistant N° ([3]; Central Region),Resistant (%) ([3]; Southern Region),Resistant N° ([3]; Southern Region),Resistant (%) [4],Resistant N° [4]
"CO/N=C(\C(=O)N[C@@H]1C(=O)N2C(C(=O)O)=C(COC(C)=O)CS[C@H]12)c1csc(N)n1 [CTX, Cefotaxime]",15.4%,2,23.8%,5,24%,0.0%,0,5.9%,1,3.6%,1
"NC[C@@H]1O[C@H](O[C@H]2[C@@H](O)[C@H](O[C@@H]3[C@@H](O)[C@H](N)C[C@H](N)[C@H]3O[C@H]3O[C@H](CN)[C@@H](O)[C@H](O)[C@H]3N)O[C@@H]2CO)[C@H](N)[C@@H](O)[C@@H]1O [Ne, Neomycin]",54% and 53.8%,7,52% and 52.4%,11,,15.4%,2,5.9%,1,21.4%,6
Amoxicillin/clavulanic acid [AMC],23.0%,3,0.0%,0,,0.0%,0,0.0%,0,7.1%,2
Gentamicin [GN],15.4%,2,43% and 42.9%,9,,0.0%,0,0.0%,0,0.0%,0
Trimethropin/sulfamethoxazole [SXT],15.4%,2,0.0%,0,,0.0%,0,0.0%,0,3.6%,1
